Results taken from patent publication US20220047616A1, “Method and Compositions for Treating HTLV-1 Virus Infection” (priority 2019, published 2022).

Assays:
ZIKV (PLCal_ZV strain) = test: Protection of ZIKV-induced cytopathic effect (CPE) with Neutral Red readout; assay type: cell-based, Zikavirus; details: CPE-based assay, Vero cells, 6 days
Procedure: (§1) A CPE-based antiviral assay was performed by infecting target cells in the presence or absence of test compositions, at a range of concentrations. […] cytopathic effects and cell death. […] For CPE-based assays, cell viability was determined with a neutral red readout. Viable cells incorporate neutral red in their lysosomes. Uptake of neutral red relies on the ability of live cells to maintain a lower pH inside their lysosomes than in the cytoplasm, and this active process requires ATP. Once inside the lysosome, the neutral red dye becomes charged and is retained intracellularly. […] The amount of neutral red in solution was quantified by reading the absorbance (optical density) of each well at 490 nm […]
(§2) Cytotoxic effects were evaluated in uninfected cells by comparing viability in the presence of inhibitors to the viability of mock-treated cells. Cytotoxicity was determined by an XTT viability assay, which was conducted at the same timepoint as the readout for the corresponding infection assay.
(§3) Test compositions were dissolved in 100% methanol. […] When possible, the EC50 and CC50 of the composition was determined for each assay using GraphPad Prism software. […]
Protection of ZIKV-induced cytopathic effect (CPE) with Neutral Red readout: For the ZIKV antiviral assay, the PLCal_ZV strain was used. […]

HTLV-1 [1] = test: HTLV-1 replication and release of p19Gag-containing particles from SLB1 cells (Anti-HTLV-1 p19Gag ELISA); assay type: cell-based; details: SLB1 cells, 10, 50, 100 μg/ml, 72 hrs
HIV-1 [2] = details: reported; cited from earlier work
Ebolavirus (EBOV/Kik) = assay type: cell-based; details: compositions added to cells, then virus, 1 hr; FIGS. 1-2
rhinovirus = test: Antiviral activity against rhinovirus infection; details: concentrations and assays employed herein
[3] = tested on: DENV2 (08-10381 Montserrat strain); test: Protection of DENV2-induced cytopathic effect (CPE) with Neutral Red readout; assay type: cell-based, Dengue virus; details: CPE-based assay, Vero cells, 7 days
Procedure: as §1, §2, §3
Protection of DENV2-induced cytopathic effect (CPE) with Neutral Red readout: For the DENV2 antiviral assay, the 08-10381 Montserrat strain was used. […]

HTLV-1 [4] = test: Infectivity of HTLV-1 particles from treated SLB1 cells on primary huPBMCs (p19Gag ELISA); assay type: cell-based; details: lowest concentration 10 μg/ml, relative to vehicle control
HTLV-1 [5] = test: HTLV-1 transmission in SLB1/huPBMC co-culture (p19Gag ELISA); assay type: cell-based; details: SLB1 pre-treated 15 min or 3 hrs, co-culture 72 hrs
Marburgvirus (MARV/Ci67) = assay type: cell-based; details: compositions added to cells, then virus, 1 hr; FIGS. 3-4
[6] = tested on: HTLV-1+ SLB1 lymphoma T-cell-line; test: Cytotoxicity/apoptosis in HTLV-1+ SLB1 lymphoma T-cells (Annexin V-FITC/PI); details: 72 hrs
HTLV-1 [7] = test: Virological synapse formation and HTLV-1 transmission in co-culture (fluorescence microscopy, gp21-positive huPBMCs); assay type: cell-based; details: SLB1/pLenti-GFP pre-treated 3 hrs, 10, 50, 100 μg/ml
HIV-1 [8] = details: cited from earlier work
HSV-2 = details: reported; cited from earlier work
HEP C = details: reported; cited from earlier work
ADV-11 = details: reported; cited from earlier work
HSV-1 = details: reported; cited from earlier work
HEP B = details: reported; cited from earlier work
ADV-8 = details: reported; cited from earlier work
ENTV EV71 = details: reported; cited from earlier work
ADV-3 = details: reported; cited from earlier work
HCV H strain NS5B = HCV H strain NS5B (Hepatitis C virus genotype 1a, UniProt P27958); details: reported; cited from earlier work
ENTV CVB1 = details: reported; cited from earlier work
Dengue virus = details: Cheung et al. 2014; cited from earlier work

HCV H strain NS5B, sequence (P27958 2421-3011): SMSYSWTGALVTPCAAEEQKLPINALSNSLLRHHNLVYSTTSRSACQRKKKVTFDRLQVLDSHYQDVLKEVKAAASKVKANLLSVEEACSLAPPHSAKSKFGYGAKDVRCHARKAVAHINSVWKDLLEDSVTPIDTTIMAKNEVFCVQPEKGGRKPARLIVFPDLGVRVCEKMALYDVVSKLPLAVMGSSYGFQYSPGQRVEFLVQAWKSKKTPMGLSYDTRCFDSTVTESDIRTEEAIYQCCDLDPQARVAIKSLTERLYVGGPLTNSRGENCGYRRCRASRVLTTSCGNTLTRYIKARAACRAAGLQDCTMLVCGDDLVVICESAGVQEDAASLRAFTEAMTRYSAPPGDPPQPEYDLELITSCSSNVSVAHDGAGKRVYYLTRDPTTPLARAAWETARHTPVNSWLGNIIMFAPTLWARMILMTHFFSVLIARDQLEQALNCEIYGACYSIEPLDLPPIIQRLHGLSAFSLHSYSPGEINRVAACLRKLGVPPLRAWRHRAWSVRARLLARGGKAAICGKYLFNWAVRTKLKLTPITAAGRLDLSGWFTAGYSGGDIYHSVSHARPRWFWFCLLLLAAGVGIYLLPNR

Q: Which results are given for `CO[C@H]1C[C@H](O[C@H]2CC[C@@]3(C)[C@H](CC[C@@H]4[C@@H]3CC[C@]3(C)[C@@H](C5=CC(=O)OC5)[C@@H](OC(C)=O)C[C@]43O)C2)O[C@@H](C)[C@@H]1O` [oleandrin]?
A: efficacy against Zikavirus (ZIKV (PLCal_ZV strain)): demonstrates efficacy; HTLV-1 replication / release of p19Gag-containing virus particles (HTLV-1 [1]): does not significantly inhibit; anti-viral activity against HIV-1 (HIV-1 [2]): demonstrated anti-HIV activity; cellular viability of Vero E6 cells (Vero E6 cells): did not reduce cellular viability; efficacy against Ebolavirus (dose response, based on oleandrin content) (Ebolavirus (EBOV/Kik)): efficacious; activity against rhinovirus (viral replication) (rhinovirus): inactive; efficacy against Dengue virus [3]: demonstrates efficacy; infectivity of newly-synthesized p19Gag-containing virus particles on huPBMCs (HTLV-1 [4]): inhibited the infectivity; transmission of HTLV-1 in co-culture (extracellular p19Gag) (HTLV-1 [5]): inhibited the transmission of HTLV-1 as compared to the vehicle control; efficacy against Marburgvirus (dose response, based on oleandrin content) (Marburgvirus (MARV/Ci67)): efficacious; cytotoxicity/apoptosis in SLB1 cells at the lowest concentration ([6]; 10 μg/ml): did not induce significant cytotoxicity/apoptosis; cytotoxicity in SLB1 cells compared with Vehicle control [6]: not significantly higher than the Vehicle control; formation of virological synapses and transmission of HTLV-1 (HTLV-1 [7]): inhibited the formation of virological synapses and the transmission of HTLV-1 in vitro; HIV-1 viral infectivity in vitro (HIV-1 [8]): inhibit viral infectivity in vitro; incorporation of gp120 envelope glycoprotein of HIV-1 into mature virus particles (HIV-1 [8]): prevent the incorporation

Q: With `C[C@H]1[C@H](C)CC[C@]2(C(=O)O)CC[C@]3(C)C(=CC[C@@H]4[C@@]5(C)CC[C@H](O)C(C)(C)[C@@H]5CC[C@]43C)[C@H]12` [Ursolic acid, ursolic acid] as the compound, how does the “anti-viral activity against HSV-2” value (HSV-2) read?
A: The value was “some anti-viral activity”.

Q: And the “anti-viral activity against HEP C” value (HEP C)?
A: The value was “some anti-viral activity”.

Q: And the “anti-viral activity against ADV-11” value (ADV-11)?
A: The value was “some anti-viral activity”.

Q: What about the “anti-viral activity against HIV-1” value (HIV-1 [2]) of the same compound?
A: The value was “some anti-viral activity”.

Q: And the “anti-viral activity against HSV-1” value (HSV-1)?
A: The value was “some anti-viral activity”.

Q: What about the “anti-viral activity against HEP B” value (HEP B) of the same compound?
A: Its value is “some anti-viral activity”.

Q: What about the “anti-viral activity against ADV-8” value (ADV-8) of the same compound?
A: Its value is “some anti-viral activity”.

Q: And the “anti-viral activity against ENTV EV71” value (ENTV EV71)?
A: Its value is “some anti-viral activity”.

Q: What about the “anti-viral activity against ADV-3” value (ADV-3) of the same compound?
A: Its value is “some anti-viral activity”.

Q: And the “anti-viral activity against HCV H strain NS5B” value (HCV H strain NS5B)?
A: Its value is “some anti-viral activity”.

Q: What about the “anti-viral activity against ENTV CVB1” value (ENTV CVB1) of the same compound?
A: Its value is “some anti-viral activity”.

Q: For `CC(=O)O[C@H]1C[C@H](O[C@H]2[C@@H](O)C[C@H](O[C@H]3[C@@H](O)C[C@H](O[C@H]4CC[C@@]5(C)[C@H](CC[C@@H]6[C@@H]5C[C@@H](O)[C@]5(C)[C@@H](C7=CC(=O)OC7)CC[C@]65O)C4)O[C@@H]3C)O[C@@H]2C)O[C@H](C)[C@H]1O[C@@H]1O[C@H](CO)[C@@H](O)[C@H](O)[C@H]1O` [lanatoside C], which “antiviral activity against Dengue virus” value (Dengue virus) is on record?
A: The value was “demonstrates antiviral activity”.

Q: For `C[C@H]1O[C@@H](O[C@H]2[C@@H](O)C[C@H](O[C@H]3[C@@H](O)C[C@H](O[C@H]4CC[C@@]5(C)[C@H](CC[C@@H]6[C@@H]5C[C@@H](O)[C@]5(C)[C@@H](C7=CC(=O)OC7)CC[C@]65O)C4)O[C@@H]3C)O[C@@H]2C)C[C@H](O)[C@@H]1O` [digoxin, reference compound], which “cellular viability of Vero E6 cells” value (Vero E6 cells) is on record?
A: Its value is “did not reduce cellular viability”.

Q: For `CC1(C)CC[C@]2(C(=O)O)CC[C@]3(C)C(=CC[C@@H]4[C@@]5(C)CC[C@H](O)C(C)(C)[C@@H]5CC[C@]43C)[C@@H]2C1` [Oleanolic acid, oleanolic acid], which “anti-viral activity against HEP C” value (HEP C) is on record?
A: The value was “some anti-viral activity”.

Q: What about the “anti-viral activity against HIV-1” value (HIV-1 [2]) of the same compound?
A: Its value is “some anti-viral activity”.

Q: What about the “anti-viral activity against HCV H strain NS5B” value (HCV H strain NS5B) of the same compound?
A: The value was “some anti-viral activity”.
